Assay results taken from ChEMBL document CHEMBL1201862, “PubChem BioAssay data set” (2004).
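Briefly, cells in 96-well plates were exposed to five compound concentrations for 48 h, and endpoints were estimated by linear interpolation. GI50 = concentration required for 50% inhibition of growth.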 Calls of active or inactive are those of the source. Cut-off read from the data, not from the text of the source: active = GI50 up to about 1.1 µM and inactive = higher.

Columns and labels:
Assay in all cases: DTP human tumour cell line panel, 48 h
[1] = tested on: NCI-H522
[2] = tested on: U-251
[3] = tested on: MDA-N
[4] = tested on: LOX IMVI
[5] = tested on: 786-0
[6] = tested on: M14
[7] = tested on: MDA-MB-231
[8] = tested on: HCT-15
[9] = tested on: NCI/ADR-RES
[10] = tested on: K562
[11] = tested on: ACHN
[12] = tested on: SNB-19
[13] = tested on: SF-295
[14] = tested on: UACC-257
[15] = tested on: NCI-H460
[16] = tested on: NCI-H226

SMILES | GI50 [1] | GI50 [2] | GI50 [3] | GI50 [4] | GI50 [5] | GI50 [6] | GI50 [7] | GI50 [8] | GI50 [9] | GI50 [10] | GI50 [11] | GI50 [12] | GI50 [13] | GI50 [14] | GI50 [15] | GI50 [16]
OCCc1ccsc1-c1sc(-c2cc(CCO)c(-c3sccc3CCO)s2)cc1CCO | 12.2 µM (inactive) | 12.7 µM (inactive) | 21.6 µM (inactive) | 5.45 µM (inactive) | 12 µM (inactive) | 11.3 µM (inactive) | 12.2 µM (inactive) | 12.4 µM | 20.2 µM (inactive) | 7.94 µM (inactive) | 15.8 µM (inactive) | 13.6 µM (inactive) | 15.1 µM (inactive) | 17 µM (inactive) | 6.12 µM (inactive) | 
CCOC(=O)c1c(SCC#N)n(-c2ccccc2)c(=S)n(-c2ccccc2)c1=O | 34.4 µM (inactive) | 33 µM (inactive) | 82.8 µM (inactive) | 14.7 µM (inactive) | 53.5 µM (inactive) | > 100 µM (inactive) |  | 25.8 µM | 35.3 µM (inactive) | 18.2 µM (inactive) | 28.1 µM (inactive) | 37.8 µM (inactive) | 32.1 µM (inactive) | 61.2 µM (inactive) | 34.2 µM (inactive) | 38.4 µM (inactive)
COc1cc(Cc2cnc(N)nc2N)cc(OC)c1OCCCNc1ccc([N+](=O)[O-])cc1 | 13 µM (inactive) | 13.7 µM (inactive) | 16.2 µM (inactive) |  | 12.4 µM (inactive) | 6.35 µM (inactive) | 12.9 µM (inactive) | 14.6 µM | 18.6 µM (inactive) | 8.69 µM (inactive) | 18 µM (inactive) | 12.8 µM (inactive) |  | 11.9 µM (inactive) | 7.48 µM (inactive) | 13.4 µM (inactive)
O=C1C(=Cc2ccc(O)cc2)N=C(c2ccccc2)N1n1c(-c2ccccc2)nc2ccccc2c1=O | 50 µM (inactive) |  | > 100 µM (inactive) | > 100 µM (inactive) | > 100 µM (inactive) | > 100 µM (inactive) | 76.9 µM (inactive) | 38.9 µM |  | > 10 µM (inactive) |  | > 100 µM (inactive) | > 100 µM (inactive) | > 100 µM (inactive) |  | > 100 µM (inactive)
CC(=O)c1ccc(-c2oc(-c3ccccc3)cc2-c2ccc3c(c2)OCO3)s1 |  | > 100 µM (inactive) |  |  | > 100 µM (inactive) | 65.3 µM (inactive) |  |  | 49.7 µM (inactive) | > 100 µM (inactive) | > 100 µM (inactive) |  | > 100 µM (inactive) | > 100 µM (inactive) | 68.5 µM (inactive) | > 100 µM (inactive)
COC(=O)c1cc(C#N)[nH]c1-c1ccsc1 | 87.7 µM (inactive) | > 100 µM (inactive) | > 100 µM (inactive) | > 100 µM (inactive) | > 100 µM (inactive) | > 100 µM (inactive) | > 100 µM (inactive) | 70.1 µM | > 100 µM (inactive) | 53.1 µM (inactive) | 85.7 µM (inactive) |  | > 100 µM (inactive) | 54.3 µM (inactive) |  | > 100 µM (inactive)
O=c1oc(-c2ccccc2)c(-c2ccccc2)n1-c1ccc(Br)cc1 | 17.2 µM (inactive) | 24.2 µM (inactive) |  | 32.4 µM (inactive) | 32.4 µM (inactive) | > 100 µM (inactive) | 27.7 µM (inactive) | > 100 µM |  |  | > 100 µM (inactive) | 31.8 µM (inactive) | 28.1 µM (inactive) | 86.9 µM (inactive) | 62.1 µM (inactive) | > 100 µM (inactive)
Cc1cc(C)nc(NC(=S)Nc2cccc(Cl)c2)c1 |  | > 100 µM (inactive) | > 100 µM (inactive) | > 100 µM (inactive) | > 48.5 µM (inactive) | > 100 µM (inactive) | > 100 µM (inactive) | > 100 µM | > 100 µM (inactive) | > 100 µM (inactive) | 28.1 µM (inactive) | > 100 µM (inactive) | > 100 µM (inactive) | > 100 µM (inactive) | > 45.8 µM (inactive) | > 100 µM (inactive)
Nc1nc(Cl)cc(OCC2(CO)CCCC2)n1 | > 100 µM (inactive) | > 100 µM (inactive) | > 100 µM (inactive) | > 100 µM (inactive) | > 100 µM (inactive) |  |  | > 100 µM | > 100 µM (inactive) | > 100 µM (inactive) | > 100 µM (inactive) | > 100 µM (inactive) | > 100 µM (inactive) | > 100 µM (inactive) | > 100 µM (inactive) | > 100 µM (inactive)
COc1ccc(S(=O)(=O)O)cc1-n1nc(C(=O)Nc2ccccc2)n[n+]1-c1cc(S(=O)(=O)[O-])ccc1OC | > 100 µM (inactive) | > 100 µM (inactive) | > 100 µM (inactive) |  | > 100 µM (inactive) | > 100 µM (inactive) | > 100 µM (inactive) | > 100 µM | > 100 µM (inactive) | > 100 µM (inactive) | > 100 µM (inactive) | > 100 µM (inactive) | > 100 µM (inactive) |  | > 100 µM (inactive) | > 100 µM (inactive)
